Assay results published in US20240300976A1, “COMPOUNDS AS MODULATORS OF ENDOPLASMIC RETICULUM AMINOPEPTIDASE 1 (ERAP1)” (GREY WOLF THERAPEUTICS LIMITED, priority 2020, published 2024).

Target: T1, ERAP1 (Homo sapiens, UniProt Q9NZ08)
T1 construct: Purified ERAP1(37-941)-10His (ERAP1); 10His (C)
Assay: ERAP1 mediated hydrolysis of an amide substrate (10-mer inhibition assay), biochemical system
Settings: 10-mer substrate, incubated at 23° C. for 1 h, excitation 279 nm and emission 355 nm; read-out: IC50 vs Decapeptide WRVYEKC(Dnp)ALK-acid (where Dnp is Dinitrophenyl maleimide) (10-mer)
Text: This peptide has minimal fluorescence as the N-terminal tryptophan residue's fluorescence is quenched by the dinitrophenol (DNP) residue within the peptide. However, as ERAP1 hydrolyses the N-terminal amide bond and tryptophan is released this internal quenching is lost and the reaction is monitored by the increase in tryptophan fluorescence over the course of the assay. For the purposes of this application this assay is referred to as the “1 Omer inhibition assay” and compound potencies are calculated and expressed as 1050 as would be familiar to a person skilled in the art.
Biological Assay 1: ERAP1 Mediated Hydrolysis of an Amide Substrate Measured in a Biochemical System
• 1× Assay buffer (AB): 25 mM Bis-tris propane, 0.05% w/v Hydroxypropylmethylcellulose pH 7.75 made with Optima grade water • Decapeptide WRVYEKC(Dnp)ALK-acid (where Dnp is Dinitrophenyl maleimide) (10-mer) • L-Leucine 7-amido-4-methylcoumarin (L-AMC) • Purified ERAP1(37-941)-10His (ERAP1)
12.5 μL ERAP1 enzyme in 1×AB was combined with 250 nL test compound in DMSO. 12.5 μL of either 240 μM L-AMC in 1×AB or 100 μM 10-mer in 1×AB was added to the reaction and incubated at 23° C. for 1 h. For detection, plates were read at excitation 365 nm and emission 442 nm (L-AMC) or excitation 279 nm and emission 355 nm (10-mer). Compound IC50 was determined using a 4-parameter equation.

T1 sequence (Q9NZ08 37-941): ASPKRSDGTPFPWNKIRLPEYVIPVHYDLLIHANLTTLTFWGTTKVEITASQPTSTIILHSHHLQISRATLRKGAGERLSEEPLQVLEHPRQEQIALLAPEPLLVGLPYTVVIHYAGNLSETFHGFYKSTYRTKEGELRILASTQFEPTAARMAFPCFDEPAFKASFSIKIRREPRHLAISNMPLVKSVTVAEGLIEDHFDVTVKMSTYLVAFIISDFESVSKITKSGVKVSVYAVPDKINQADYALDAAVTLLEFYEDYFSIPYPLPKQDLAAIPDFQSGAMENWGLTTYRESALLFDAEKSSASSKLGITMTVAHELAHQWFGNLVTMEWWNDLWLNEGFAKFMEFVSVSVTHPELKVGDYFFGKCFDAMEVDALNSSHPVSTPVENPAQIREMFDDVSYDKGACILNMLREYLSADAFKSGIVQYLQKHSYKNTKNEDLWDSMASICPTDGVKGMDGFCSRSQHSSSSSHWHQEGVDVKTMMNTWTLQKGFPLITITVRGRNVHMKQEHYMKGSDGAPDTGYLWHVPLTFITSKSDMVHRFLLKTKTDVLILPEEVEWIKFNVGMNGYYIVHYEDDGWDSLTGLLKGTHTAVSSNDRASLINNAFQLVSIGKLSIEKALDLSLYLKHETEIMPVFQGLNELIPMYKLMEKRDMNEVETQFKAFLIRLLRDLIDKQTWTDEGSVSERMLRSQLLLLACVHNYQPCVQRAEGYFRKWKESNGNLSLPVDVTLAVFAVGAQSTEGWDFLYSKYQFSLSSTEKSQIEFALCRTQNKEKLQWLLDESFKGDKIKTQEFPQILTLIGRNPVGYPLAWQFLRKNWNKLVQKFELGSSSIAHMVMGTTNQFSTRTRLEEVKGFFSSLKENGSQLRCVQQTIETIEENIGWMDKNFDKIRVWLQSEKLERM

Molecule | IC50
3-chloro-2-(1H-tetrazol-1-yl)-7,8,9,9a,10,11,12,13-octahydro-6H, 20H-dibenzo[b,f]pyrido[1,2-h][1]oxa[4]thia[5,8]diazacyclotridecine-17-carboxylic acid 19,19-dioxide [Example 54] | < 250 nM
O=C(O)c1ccc2c(c1)S(=O)(=O)Nc1cc(C(F)(F)F)ccc1N1CCCCC1C/C=C/CO2 (racemic) [Example 1, (E)-2-(trifluoromethyl)-7,8,9,9a,10,13-hexahydro-6H, 20H-dibenzo[b,f]pyrido[1,2-h][1]oxa[4]thia[5,8]diazacyclotridecine-17-carboxylic acid 19,19-dioxide] | < 250 nM
N#Cc1ccc2c(c1)NS(=O)(=O)c1cc(C(=O)O)ccc1OCCC1CCCCN21 (racemic) [Example 2, 2-cyano-7,8,9,9a,10,11-hexahydro-6H, 18H-dibenzo[b,f]pyrido[1,2-h][1]oxa[4]thia[5,8]diazacycloundecine-15-carboxylic acid 17,17-dioxide] | > 1000 nM
N#Cc1ccc2c(c1)NS(=O)(=O)c1cc(C(=O)O)ccc1OCC1CCCCN21 (racemic) [Example 3, 8-cyano-12,13,14,15,15a,16-hexahydro-6H-dibenzo[b,f]pyrido[1,2 h][1,4,5,8]oxathiadiazecine-3-carboxylic acid 5,5-dioxide] | < 250 nM
N#Cc1ccc2c(c1)NS(=O)(=O)c1cc(C(=O)O)ccc1OCCCCC1CCCCN21 (racemic) [Example 4, 2-cyano-7,8,9,9a,10,11,12,13-octahydro-6H,20H-dibenzo[b,f]pyrido[1,2-h][1]oxa[4]thia[5,8]diazacyclotridecine-17-carboxylic acid 19,19-dioxide] | < 250 nM
N#Cc1cc2c(cc1Cl)N1CCCCC1COc1ccc(C(=O)O)cc1S(=O)(=O)N2 (racemic) [Example 14, 9-chloro-8-cyano-12,13,14,15,15a,16-hexahydro-6H-dibenzo[b,f]pyrido[1,2-h][1,4,5,8]oxathiadiazecine-3-carboxylic acid 5,5-dioxide] | < 250 nM
N#Cc1ccc2c(c1)NS(=O)(=O)c1cc(C(=O)O)ccc1OC/C=C/CC1CCCCN21 (racemic) [Example 15, (E)-2-cyano-7,8,9,9a,10,13-hexahydro-6H, 20H-dibenzo[b,f]pyrido[1,2-h][1]oxa[4]thia[5,8]diazacyclotridecine-17-carboxylic acid 19,19-dioxide] | < 250 nM
CS(=O)(=O)c1ccc2c(c1)NS(=O)(=O)c1cc(C(=O)O)ccc1OCC1CCCCN21 (racemic) [Example 18, 8-(methylsulfonyl)-12,13,14,15,15a,16-hexahydro-6H-dibenzo[b,f]pyrido[1,2-h][1,4,5,8]oxathiadiazecine-3-carboxylic acid 5,5-dioxide] | 250 to 1000 nM
N#Cc1cc2c(cc1Cl)N1CCCCC1CCCOc1ccc(C(=O)O)cc1S(=O)(=O)N2 (racemic) [Example 21, 3-chloro-2-cyano-6,7,8,9,9a,10,11,12-octahydro-19H-dibenzo[b,f]pyrido[1,2-h][1]oxa[4]thia[5,8]diazacyclododecine-16-carboxylic acid 18,18-dioxide] | < 250 nM
N#Cc1cc2c(cc1Cl)N1CCCCC1CCCCOc1ccc(C(=O)O)cc1S(=O)(=O)N2 (racemic) [Example 22, 3-chloro-2-cyano-7,8,9,9a,10,11,12,13-octahydro-6H, 20H-dibenzo[b,f]pyrido[1,2-h][1]oxa[4]thia[5,8]diazacyclotridecine-17-carboxylic acid 19,19-dioxide] | < 250 nM
CS(=O)(=O)c1ccc2c(c1)NS(=O)(=O)c1cc(C(=O)O)ccc1OCCCCC1CCCCN21 (racemic) [Example 23, 2-(methylsulfonyl)-7,8,9,9a,10,11,12,13-octahydro-6H, 20H-dibenzo[b,f]pyrido[1,2-h][1]oxa[4]thia[5,8]diazacyclotridecine-17-carboxylic acid 19,19-dioxide] | 250 to 1000 nM
N#Cc1cc2c(cc1F)N1CCCCC1COc1ccc(C(=O)O)cc1S(=O)(=O)N2 (racemic) [Example 24, 8-cyano-9-fluoro-12,13,14,15,15a,16-hexahydro-6H-dibenzo[b,f]pyrido[1,2-h][1,4,5,8]oxathiadiazecine-3-carboxylic acid 5,5-dioxide] | < 250 nM
CS(=O)(=O)c1cc2c(cc1F)N1CCCCC1COc1ccc(C(=O)O)cc1S(=O)(=O)N2 (racemic) [Example 25, 9-fluoro-8-(methylsulfonyl)-12,13,14,15,15a,16-hexahydro-6H-dibenzo[b,f]pyrido[1,2-h][1,4,5,8]oxathiadiazecine-3-carboxylic acid 5,5-dioxide] | < 250 nM

Continued, values first:

IC50 | Molecule
< 250 nM | N#Cc1cc2c(cc1F)N1CCCCC1CCCCOc1ccc(C(=O)O)cc1S(=O)(=O)N2 (racemic) [Example 28, 2-cyano-3-fluoro-7,8,9,9a,10,11,12,13-octahydro-6H,20H-dibenzo[b,f]pyrido[1,2-h][1]oxa[4]thia[5,8]diazacyclotridecine-17-carboxylic acid 19,19-dioxide]
< 250 nM | N#Cc1cc2c(cc1F)N1CCCCC1CCCOc1ccc(C(=O)O)cc1S(=O)(=O)N2 (racemic) [Example 29, 2-cyano-3-fluoro-6,7,8,9,9a,10,11,12-octahydro-19H-dibenzo[b,f]pyrido[1,2-h][1]oxa[4]thia[5,8]diazacyclododecine-16-carboxylic acid 18,18-dioxide]
< 250 nM | N#Cc1cc2c(cc1Cl)N1CCCCC1C/C=C/COc1ccc(C(=O)O)cc1S(=O)(=O)N2 (racemic) [Example 30, (E)-3-chloro-2-cyano-7,8,9,9a,10,13-hexa hydro-6H, 20H-dibenzo[b,f]pyrido[1,2-h][1]oxa[4]thia[5,8]diazacyclotridecine-17-carboxylic acid 19,19-dioxide]
< 250 nM | CS(=O)(=O)c1cc2c(cc1F)N1CCCCC1CCCCOc1ccc(C(=O)O)cc1S(=O)(=O)N2 (racemic) [Example 31, 3-fluoro-2-(methylsulfonyl)-7,8,9,9a,10,11,12,13-octahydro-6H, 20H-dibenzo[b,f]pyrido[1,2-h][1]oxa[4]thia[5,8]diazacyclotridecine-17-carboxylic acid 19,19-dioxide]
< 250 nM | CN1c2cc(S(C)(=O)=O)ccc2N2CCCCC2CCCOc2ccc(C(=O)O)cc2S1(=O)=O (racemic) [Example 34, 19-methyl-2-(methylsulfonyl)-6,7,8,9,9a,10,11,12-octahydro-19H-dibenzo[b,f]pyrido[1,2-h][1]oxa[4]thia[5,8]diazacyclododecine-16-carboxylic acid 18,18-dioxide]
< 250 nM | N#Cc1cc2c(cc1Cl)N1CCCCC1/C=C/COc1ccc(C(=O)O)cc1S(=O)(=O)N2 (racemic) [Example 35, (E)-3-chloro-2-cyano-6,7,8,9,9a,12-hexahydro-19H-dibenzo[b,f]pyrido[1,2-h][1]oxa[4]thia[5,8]diazacyclododecine-16-carboxylic acid 18,18-dioxide]
< 250 nM | CS(=O)(=O)c1ccc2c(c1)NS(=O)(=O)c1cc(C(=O)O)ccc1OCCCC1CCCCN21 (racemic) [Example 36, 2-(methylsulfonyl)-6,7,8,9,9a,10,11,12-octahydro-19H-dibenzo[b,f]pyrido[1,2-h][1]oxa[4]thia[5,8]diazacyclododecine-16-carboxylic acid 18,18-dioxide]
